Experimental findings from PubChem BioAssay AID240 (DTP/NCI, 2004) are described below.

The experiment relates to Lymphoma 4 ip in BDF1 mice, median survival. Briefly: NCI In Vivo Anticancer Drug Screen. Data for tumor model Lymphoma 4 (intraperitoneal) in B6D2F1 (BDF1) mice. The settings on record: endpoint: median survival time, higher = longer survival. As for the experimental part: The antitumor activity of compounds was measured in mice bearing transplantable tumors. Survival or tumor size were measured and the results are expressed as the measurement made in the treated group (T) divided by the measurement made in the vehicle treated control group (C). The tumor model used in this assay is Lymphoma 4 (intraperitoneal) in B6D2F1 (BDF1) mice

[1] abbreviates: dose: 25.0 mg/kg/injection, schedule: Q01DX010 (ip), vehicle: saline.
Setting [2] is: dose: 50.0 mg/kg/injection, schedule: Q01DX010 (ip), vehicle: saline.
Setting [3] is: dose: 100.0 mg/kg/injection, schedule: Q01DX010 (ip), vehicle: saline.
[4] abbreviates: dose: 200.0 mg/kg/injection, schedule: Q01DX010 (ip), vehicle: saline.
Where [5] appears, read: dose: 12.5 mg/kg/injection, schedule: Q01DX010 (ip), vehicle: saline.
[6] abbreviates: dose: 3.13 mg/kg/injection, schedule: Q01DX010 (ip), vehicle: saline.
Where [7] appears, read: dose: 6.25 mg/kg/injection, schedule: Q01DX010 (ip), vehicle: saline.
The mark [8] stands for this setting: dose: 1.25 mg/kg/injection, schedule: Q01DX010 (ip), vehicle: saline.
Setting [9] is: dose: 10.0 mg/kg/injection, schedule: Q01DX010 (ip), vehicle: saline.
The mark [10] stands for this setting: dose: 5.0 mg/kg/injection, schedule: Q01DX010 (ip), vehicle: saline.
[11] abbreviates: dose: 0.5 mg/kg/injection, schedule: Q01DX010 (ip), vehicle: saline.
The mark [12] stands for this setting: dose: 20.0 mg/kg/injection, schedule: Q01DX010 (ip), vehicle: saline.
[13] abbreviates: dose: 400.0 mg/kg/injection, schedule: Q01DX010 (ip), vehicle: saline.
[14] abbreviates: dose: 8.0 mg/kg/injection, schedule: Q01DX010 (ip), vehicle: saline.
Setting [15] is: dose: 15.6 mg/kg/injection, schedule: Q01DX010 (ip), vehicle: saline.
The mark [16] stands for this setting: dose: 16.0 mg/kg/injection, schedule: Q01DX010 (ip), vehicle: saline.
Where [17] appears, read: dose: 31.3 mg/kg/injection, schedule: Q01DX010 (ip), vehicle: saline.
The mark [18] stands for this setting: dose: 32.0 mg/kg/injection, schedule: Q01DX010 (ip), vehicle: saline.
[19] abbreviates: dose: 62.5 mg/kg/injection, schedule: Q01DX010 (ip), vehicle: saline.
The mark [20] stands for this setting: dose: 125.0 mg/kg/injection, schedule: Q01DX010 (ip), vehicle: saline.
The mark [21] stands for this setting: dose: 250.0 mg/kg/injection, schedule: Q01DX010 (ip), vehicle: saline.
Where [22] appears, read: dose: 6.0 mg/kg/injection, schedule: Q01DX010 (ip), vehicle: saline.

Values joined by “and” are separate entries in the source; they are usually repeats but may differ in a detail not shown here. Identical values can stand only once. Inconclusive results and toxic doses are left out.

With `CN(C)[C@@H]1C(=O)C(C(N)=O)=C(O)[C@@]2(O)C(=O)C3=C(O)c4c(O)cccc4C[C@H]3C[C@@H]12`, the T/C was 114 % of control (dose: 3.75 mg/kg/injection, schedule: Q01DX010 (ip), vehicle: saline); 107 % of control and 111 % of control (dose: 7.5 mg/kg/injection, schedule: Q01DX010 (ip), vehicle: saline); 107 % of control (dose: 15.0 mg/kg/injection, schedule: Q01DX010 (ip), vehicle: saline); 100 % of control and 107 % of control (dose: 30.0 mg/kg/injection, schedule: Q01DX010 (ip), vehicle: saline).

Regarding `CSc1ncnc2nc[nH]c12`, the T/C is, setting by setting: under setting [1], 100 % of control and 103 % of control; under setting [2], 96 % of control and 115 % of control; under setting [3], 103 % of control; under setting [4], 100 % of control and 115 % of control.

For the molecule `COc1cc(-c2ccc(Nc3ccccc3C(=O)O)c(OC)c2)ccc1Nc1ccccc1C(=O)O`, the T/C is 107 % of control under setting [5], 115 % of control under setting [1] and 123 % of control under setting [2].

In the case of `CCCNc1ncnc2[nH]ncc12`, the T/C is 109 % of control and 111 % of control under setting [6]; 103 % of control and 123 % of control under setting [7]; 103 % of control and 117 % of control under setting [5]; 91 % of control and 109 % of control under setting [1].

As to `C#CCN(C)Cc1ccccc1`, the T/C is, setting by setting: under setting [1], 93 % of control; under setting [2], 93 % of control; under setting [3], 96 % of control; under setting [4], 96 % of control.

Turning to `Oc1cc(CN(CCCl)CCCl)c(O)cc1CN(CCCl)CCCl`, the T/C (dose: 0.63 mg/kg/injection, schedule: Q01DX010 (ip), vehicle: saline) was 113 % of control and 120 % of control; the T/C under setting [8] is 106 % of control and 116 % of control.

As for `CCOC(=O)c1[nH]c2ccccc2c1CN(CCCl)CCCl`, the T/C under setting [9] was 116 % of control.

For the molecule `N#[N+]c1cnc([O-])[nH]c1=O`, the T/C was 113 % of control under setting [8], 150 % of control under setting [10] and 176 % of control under setting [9].

For `CC(=O)NC1=C(N2CC2)C(=O)C(NC(C)=O)=C(N2CC2)C1=O`, the T/C was 121 % of control (dose: 0.25 mg/kg/injection, schedule: Q01DX010 (ip), vehicle: saline); 175 % of control (dose: 1.0 mg/kg/injection, schedule: Q01DX010 (ip), vehicle: saline); 164 % of control (dose: 2.0 mg/kg/injection, schedule: Q01DX010 (ip), vehicle: saline).

As for `CS(=O)(=O)OCCN(CCOS(C)(=O)=O)c1ccc(N=O)cc1`, the T/C under setting [11] was 123 % of control.

Turning to `CCN(CC)CCNc1ccc(C)c2sc3ccccc3c(=O)c12`, the T/C is, setting by setting: under setting [1], 103 % of control; under setting [2], 120 % of control and 123 % of control; under setting [3], 103 % of control.

On to `Cc1cc(N(CCCl)CCCl)ccc1N=Nc1ccccc1C(=O)O`, for which the T/C is 171 % of control under setting [9]; 150 % of control and 166 % of control under setting [12].

Turning to `CS(=O)(=O)OCC(O)C(O)C(O)C(O)COS(C)(=O)=O` (stereo unspecified), the T/C is 100 % of control under setting [2], 103 % of control under setting [3], 103 % of control under setting [4] and 114 % of control under setting [13].

`CCn1cnc2c(=S)nc[nH]c21`: the T/C was 96 % of control (dose: 4.0 mg/kg/injection, schedule: Q01DX010 (ip), vehicle: saline); 100 % of control under setting [14]; 93 % of control and 106 % of control under setting [15]; 96 % of control under setting [16]; 103 % of control under setting [17]; 96 % of control and 100 % of control under setting [18]. Also, under setting [19], the T/C is 100 % of control.

On to `O=c1cnn(C2OC(CO)C(O)C2O)c(=O)[nH]1` (stereo unspecified), for which the T/C runs as follows: under setting [4], 106 % of control; under setting [13], 112 % of control; (dose: 800.0 mg/kg/injection, schedule: Q01DX010 (ip), vehicle: saline) 106 % of control.

Regarding `CC1CN1P(=S)(N1CC1C)N1CC1C` (stereo unspecified), the T/C reads like this: under setting [8], 103 % of control; (dose: 2.5 mg/kg/injection, schedule: Q01DX010 (ip), vehicle: saline) 93 % of control and 115 % of control; under setting [10], 100 % of control and 111 % of control; under setting [9], 111 % of control and 120 % of control; under setting [12], 115 % of control.

For `CC(=O)Nc1ccc2nc3ccc(NC(C)=O)cc3[n+](-c3ccccc3)c2c1`, the T/C reads like this: under setting [1], 111 % of control; under setting [2], 117 % of control.

Take `OCC1OC(n2cnc3c(Cl)ncnc32)C(O)C1O` (stereo unspecified): the T/C under setting [19] is 100 % of control and 103 % of control; the T/C under setting [20] is 94 % of control and 103 % of control; the T/C under setting [21] is 94 % of control and 106 % of control; the T/C (dose: 500.0 mg/kg/injection, schedule: Q01DX010 (ip), vehicle: saline) is 94 % of control and 100 % of control.

For the molecule `N=[N+]=CC(=O)OCC(N)C(=O)O` (stereo unspecified), the T/C was 102 % of control and 111 % of control under setting [6]; 102 % of control and 108 % of control under setting [7]; 91 % of control and 114 % of control under setting [5].

As to `Nc1c(Br)cc2c(c1Br)Cc1cc([N+](=O)[O-])ccc1-2`, the T/C by setting is: under setting [15], 100 % of control; under setting [17], 107 % of control and 118 % of control; under setting [19], 107 % of control and 111 % of control; under setting [20], 111 % of control and 114 % of control; under setting [21], 103 % of control.

As for `COc1cc(-c2ccc(Nc3ccccc3C(=O)O)c(OC)c2)ccc1N`, under setting [9], the T/C is 119 % of control.

With `S=P(N1CC1)(N1CC1)N1CC1`, the T/C (dose: 0.05 mg/kg/injection, schedule: Q01DX010 (ip), vehicle: saline) is 106 % of control; the T/C (dose: 0.75 mg/kg/injection, schedule: Q01DX010 (ip), vehicle: saline) was 110 % of control; the T/C (dose: 1.5 mg/kg/injection, schedule: Q01DX010 (ip), vehicle: saline) is 117 % of control and 123 % of control; the T/C under setting [22] is 114 % of control.

Turning to `O=[n+]1c2c(n([O-])c3ccccc31)-c1cccc3cccc-2c13`, the T/C is, setting by setting: under setting [6], 107 % of control; under setting [7], 107 % of control; under setting [5], 115 % of control; under setting [1], 100 % of control.

`CC[C@]1(O)C[C@H]2CN(CCc3c([nH]c4ccccc34)[C@@](C(=O)OC)(c3cc4c(cc3OC)N(C=O)[C@H]3[C@@](O)(C(=O)OC)[C@H](OC(C)=O)[C@]5(CC)C=CCN6CC[C@]43[C@@H]65)C2)C1`: the T/C runs as follows: (dose: 0.03 mg/kg/injection, schedule: Q01DX010 (ip), vehicle: saline) 104 % of control and 121 % of control; (dose: 0.06 mg/kg/injection, schedule: Q01DX010 (ip), vehicle: saline) 108 % of control; (dose: 0.12 mg/kg/injection, schedule: Q01DX010 (ip), vehicle: saline) 158 % of control; under setting [11], 104 % of control.

For the molecule `C[C@]12C=CC(=O)C=C1CC[C@@H]1[C@@H]2[C@@H](O)C[C@@]2(C)[C@H]1CC[C@]2(O)C(=O)CO`, the T/C (dose: 12.5 mg/kg/injection, schedule: Q01DX010 (sc), vehicle: steriod suspending solution) is 123 % of control; the T/C (dose: 25.0 mg/kg/injection, schedule: Q01DX010 (sc), vehicle: steriod suspending solution) is 116 % of control; the T/C (dose: 50.0 mg/kg/injection, schedule: Q01DX010 (sc), vehicle: steriod suspending solution) is 110 % of control; the T/C (dose: 100.0 mg/kg/injection, schedule: Q01DX010 (sc), vehicle: steriod suspending solution) was 116 % of control.

On to `O=C(Nc1ccc(C2=NCCN2)cc1)c1ccc(C(=O)Nc2ccc(C3=NCCN3)cc2)c([N+](=O)[O-])c1`, for which the T/C under setting [22] was 157 % of control; the T/C under setting [14] was 189 % of control and 278 % of control; the T/C (dose: 12.0 mg/kg/injection, schedule: Q01DX010 (ip), vehicle: saline) is 185 % of control and 300 % of control; the T/C (dose: 18.0 mg/kg/injection, schedule: Q01DX010 (ip), vehicle: saline) was 96 % of control and 121 % of control.

Regarding `O=C(Nc1ccc(C2=NCCN2)cc1)c1cccc(C(=O)Nc2ccc(C3=NCCN3)cc2)c1`, the T/C by setting is: under setting [14], 113 % of control and 121 % of control; under setting [16], 120 % of control; under setting [18], 170 % of control and 189 % of control; (dose: 64.0 mg/kg/injection, schedule: Q01DX010 (ip), vehicle: saline) 235 % of control.

Regarding `C[C@@H]1C[C@@H]([C@H](O)CC2CC(=O)NC(=O)C2)C(=O)[C@@H](C)C1`, the T/C is 96 % of control and 105 % of control under setting [10]; 93 % of control and 117 % of control under setting [9]; 117 % of control and 121 % of control under setting [12]; 108 % of control (dose: 40.0 mg/kg/injection, schedule: Q01DX010 (ip), vehicle: saline).
